This experiment relates to KKA^y mice. The experiment can be described thus: Chronic 4-week treatment of diabetic KKA^y mice in drinking water. It is filed as in vivo, mouse. The procedure: Mice were fasted for 16 h. A glucose solution was administered by intragastric gavage at a dose of 1 g/kg body weight. The blood glucose concentration was measured at 0, 30, 60, 90, 120 min after glucose administration in the blood collected from the tip of the tail vein, using an Accu-Chek glucose meter (Roche, Montreal, QC, Canada).
At the end of the experiment, blood samples were collected from renal artery during exsanguinations carried out under anesthesia using heparinized tools. The samples were centrifuged at 3000 g for 10 min at 4° C. The plasma samples were used for the analyses of biochemical parameters. Plasma adiponectin, insulin and leptin were measured using radioimmuno assay (RIA) kits (Millipore, Montreal, QC, Canada).
In preliminary experiments, three different doses of BJ, namely 20, 40, 80 ml/kg/day, were incorporated in the drinking water and provided to mice for one week. […] Therefore, this dose was used for the chronic treatment studies described here.
Forty-two 7 week-old KKA^y mice were randomly divided into 6 groups (n=7) which received either water, normal blueberry juice (NJ) (80 ml/kg/day), biotransformed blueberry juice (BJ) (80 ml/kg/day; prepared as described in Example 8), or Metformin (0.85 g/kg/day) (Meglasson M D et al., supra) in drinking water. […] The sixth and final group received SW but had unrestricted access to solid food. Baseline measurements of fed blood glucose levels, body weight, food intake and water consumption were taken daily at 11.00 a.m. At the onset of experiments and after 4 weeks, an oral glucose tolerance test (OGTT) was performed, as described in Example 8.

The mark [1] stands for this setting: NJ, BJ 80 ml/kg/day, MET 0.85 g/kg/day, 4 weeks.

Each structure is given as a SMILES string. Marks after values point to notes of the source that are not given here.

Consider `CN(C)C(=N)N=C(N)N` [MET, Metformin], for which the “Rise of circulating adiponectin above values of control animals” value (4 weeks) is reported as “neither NJ nor Metformin treatments could modify the low level of adiponectin”. For the same compound, for the setting “4 weeks, BJ effect not statistically significant”, the “Reduction of circulating insulin levels vs controls” value was “normalized”. Besides, the “Drop of OGTT AUC between the onset and the end of treatment” value (4 weeks, glucose 1 g/kg by gavage) is listed as 38%. Besides, under setting [1], the “Adiponectin (plasma)” value was 5.9 ± 0.6^a μg/ml, the “Insulin (plasma)” value is given as 1.7 ± 0.5^b ng/ml, the “Leptin (plasma)” value is listed as 27.6 ± 2.9^a ng/ml and the “Reduction of food intake as compared to controls” value turned out to be 30%. The “Time to reach the maximum (BJ) or normalising (Metformin) effect on glycemia” value (chronic treatment in drinking water) is no more than 4 days. Moreover, under “during 4-week treatment”, the “Glycemia level (fed state)” value is listed as 10 mM. Further, the “Body weight loss as compared to controls” value (end of the 4-week treatment period) is 4%.

(Values after US9358262B2, “Use of antioxidant-enriched fermented blueberry extracts in the treatment of diabetes” (priority 2003, dated 2016).)
